# Assay results: article PMC8634879, “Design, Synthesis, and Biological Evaluation of Pyrano[2,3-c]-pyrazole–Based RalA Inhibitors Against Hepatocellular Carcinoma” (Frontiers in Chemistry, 2021)
# Assays:
# HepG2 cells = assay: Cell proliferation assay (MTT), HepG2; format: cell-based; conditions: Homo sapiens, HepG2, Table 1, cell proliferation inhibition; read-out: IC50 (μM) HepG2
# Description: (§1) The antibodies recognizing LC3, p62/SQSTM1, RalA, RalB, and GAPDH were purchased from Proteintech (Wuhan, China). HCC cell lines, including HepG2, Hep3B, Huh-7, and SMMC-7721, were obtained from the Chinese Center for Type Culture Collection (Wuhan, China) and cultured in DMEM (Dulbecco’s modified Eagle’s medium) with 10% FBS (fetal bovine serum) and streptomycin. Cytotoxicity assays were performed by using the MTT method as previously described.
# (§2) The in vitro RalA/B bioactivity assays were performed following methods outlined in previous reports. ([Yan et al., 2016]; [Zhang et al., 2018]; [Walsh et al., 2019]; [Bum-Erdene et al., 2020]). In brief, the lysates of the test compound or vehicle-treated cells were cleared using cold centrifugation, and supernatants were collected. An RalBP1 solution was added to 96-well plates and incubated for 1–2 h, and then the plates were washed thrice using ELISA buffer. Next, cellular lysates were added, and samples were incubated overnight at 4°C. Then, ice-cold mouse anti-FLAG antibody was added, and samples were incubated for one more hour. After subsequent washing with ELISA buffer thrice, the HRP-conjugated anti-mouse antibody was added, and samples were incubated for another hour. Then, the HRP substrate was added. Antigen–antibody reactions were quenched by the addition of sulfuric acid (2 mol/L). Remaining RalA/B was detected by the OD450 values which were collected by using a plate reader. Cell proliferation assays, colony formation assays, apoptosis assays, GST pulldown, and Western blotting were used following methods outlined in our previous reports. ([Zhou et al., 2015]; [Zhang et al., 2016]; [Yang et al., 2017]; [He et al., 2019]). Autophagy levels and protein immunoblotting were used following the methods mentioned in our previous reports ([Pan et al., 2018]; [Wang et al., 2018]; [Hao et al., 2019]; [Wang et al., 2019]; [Peng et al., 2020]). Detailed experimental procedures are described in supporting materials.
# Huh-7 cells = assay: Cell proliferation assay (MTT), Huh-7; format: cell-based; conditions: Homo sapiens, Table 1, cell proliferation inhibition, read-out: IC50 (μM) Huh7
# Description: as §1, §2
# RalB = molecular target: T1, RalB (Homo sapiens, UniProt P11234); assay: ELISA-based RalB activity assay (RalBP1-coated plates, lysates of compound-treated cells); format: biochemical; conditions: 1 μM compound; % control = active (RalBP1-bound) RalB remaining
# T1 construct: expressed in transfected cells; host or cells: HepG2 (from b6; the methods paragraph names no cell line)
# T1 sequence (P11234 1-203 limits assumed): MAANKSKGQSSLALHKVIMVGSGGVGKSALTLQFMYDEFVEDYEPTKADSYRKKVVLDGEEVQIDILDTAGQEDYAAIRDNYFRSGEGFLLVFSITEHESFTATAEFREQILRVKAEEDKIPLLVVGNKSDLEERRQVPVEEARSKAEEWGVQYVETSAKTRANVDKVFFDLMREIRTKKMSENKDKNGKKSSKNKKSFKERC
# Description: as §2
# RalA = molecular target: T2, RalA (Homo sapiens, UniProt P11233); assay: ELISA-based RalA activity assay (RalBP1-coated plates, lysates of compound-treated cells); format: biochemical; conditions: 1 μM compound; % control = activity remained
# T2 construct: expressed in transfected cells; host or cells: HepG2 (from b6; the methods paragraph names no cell line)
# T2 sequence (P11233 1-203 limits assumed): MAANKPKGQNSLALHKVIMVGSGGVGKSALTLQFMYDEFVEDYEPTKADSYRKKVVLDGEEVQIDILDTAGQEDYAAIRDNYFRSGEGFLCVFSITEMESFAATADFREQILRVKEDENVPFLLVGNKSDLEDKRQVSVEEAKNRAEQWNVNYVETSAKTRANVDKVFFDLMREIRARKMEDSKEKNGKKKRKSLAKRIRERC
# Description: as §2
structure (smiles),measurement,setting,value
"COc1cccc(C2C(C#N)=C(NS(=O)(=O)c3ccc([N+](=O)[O-])cc3)Oc3c2c(C)nn3-c2ccccc2Cl)c1 (stereo not drawn) [4ab, N-(1-(2-chlorophenyl)-5-cyano-4-(3-methoxyphenyl)-3-methyl-1,4-dihydropyrano[2,3-c]-pyrazol-6-yl)-4-nitrobenzenesulfonamide]",IC50,HepG2 cells,> 10 µM
same,IC50,Huh-7 cells,> 10 µM
same,remaining activity at 1 µM,RalB,65%
same,remaining activity at 1 µM,RalA,60%
"COc1cccc(C2C(C#N)=C(NS(=O)(=O)c3ccc(C)cc3)Oc3c2c(C)nn3-c2ccccc2Cl)c1 (stereo not drawn) [4w, N-(1-(2-chlorophenyl)-5-cyano-4-(3-methoxyphenyl)-3-methyl-1,4-dihydropyrano[2,3-c]-pyrazol-6-yl)-4-methylbenzenesulfonamide]",IC50,HepG2 cells,8.87 ± 0.95 µM
same,IC50,Huh-7 cells,> 10 µM
same,melting point,,66.4 to 67.7 °C
same,remaining activity at 1 µM,RalB,69%
same,remaining activity at 1 µM,RalA,51%
"Cc1ccc(S(=O)(=O)NC2=C(C#N)C(c3ccccc3)c3c(C)nn(-c4ccc(Cl)cc4)c3O2)cc1 (stereo not drawn) [4ac, N-(1-(4-chlorophenyl)-5-cyano-3-methyl-4-phenyl-1,4-dihydropyrano[2,3-c]-pyrazol-6-yl)-4-methylbenzenesulfonamide]",IC50,HepG2 cells,> 10 µM
same,IC50,Huh-7 cells,> 10 µM
same,melting point,,181.4 to 181.7 °C
same,remaining activity at 1 µM,RalB,68%
same,remaining activity at 1 µM,RalA,67%
"COc1cccc(C2C(C#N)=C(NS(=O)(=O)c3cccc([N+](=O)[O-])c3)Oc3c2c(C)nn3-c2ccccc2Cl)c1 (stereo not drawn) [4aa, N-(1-(2-chlorophenyl)-5-cyano-4-(3-methoxyphenyl)-3-methyl-1,4-dihydropyrano[2,3-c]-pyrazol-6-yl)-3-nitrobenzenesulfonamide]",IC50,HepG2 cells,> 10 µM
same,IC50,Huh-7 cells,> 10 µM
same,remaining activity at 1 µM,RalB,73%
same,remaining activity at 1 µM,RalA,72%
"Cc1ccc(S(=O)(=O)NC2=C(C#N)C(c3ccncc3)c3c(C)nn(-c4ccccc4Cl)c3O2)cc1 (stereo not drawn) [4u, N-(1-(2-chlorophenyl)-5-cyano-3-methyl-4-(pyridin-4-yl)-1,4-dihydropyrano[2,3-c]-pyrazol-6-yl)-4-methylbenzenesulfonamide]",IC50,HepG2 cells,8.71 ± 0.74 µM
same,IC50,Huh-7 cells,> 10 µM
same,melting point,,79 to 80 °C
same,remaining activity at 1 µM,RalB,50%
same,remaining activity at 1 µM,RalA,44%
"COc1cccc(C2C(C#N)=C(NS(=O)(=O)c3ccccc3)Oc3c2c(C)nn3-c2ccccc2Cl)c1 (stereo not drawn) [4x, N-(1-(2-chlorophenyl)-5-cyano-4-(3-methoxyphenyl)-3-methyl-1,4-dihydropyrano[2,3-c]-pyrazol-6-yl)benzenesulfonamide]",IC50,HepG2 cells,> 10 µM
same,IC50,Huh-7 cells,8.93 ± 1.02 µM
same,melting point,,66 to 67.5 °C
same,remaining activity at 1 µM,RalB,58%
same,remaining activity at 1 µM,RalA,59%
"Cc1ccc(S(=O)(=O)NC2=C(C#N)C(c3cccc(Br)c3)c3c(C)nn(-c4ccccc4)c3O2)cc1 (stereo not drawn) [4f, N-(4-(3-bromophenyl)-5-cyano-3-methyl-1-phenyl-1,4-dihydropyrano[2,3-c]-pyrazol-6-yl)-4-methylbenzenesulfonamide]",IC50,HepG2 cells,8.83 ± 0.75 µM
same,IC50,Huh-7 cells,> 10 µM
same,melting point,,68.4 to 69.5 °C
same,remaining activity at 1 µM,RalB,71%
same,remaining activity at 1 µM,RalA,47%
"Cc1ccc(S(=O)(=O)NC2=C(C#N)C(c3ccccc3)c3c(C)nn(-c4ccccc4)c3O2)cc1 (stereo not drawn) [4a, N-(5-cyano-3-methyl-1,4-diphenyl-1,4-dihydropyrano[2,3-c]-pyrazole-6-yl)-4-methylbenzenesulfonamide]",IC50,HepG2 cells,> 10 µM
same,IC50,Huh-7 cells,> 10 µM
same,melting point,,68.3 to 69.7 °C
same,remaining activity at 1 µM,RalB,85%
same,remaining activity at 1 µM,RalA,74%
"Cc1ccc(S(=O)(=O)NC2=C(C#N)C(c3ccc(Br)cc3)c3c(C)nn(-c4ccccc4)c3O2)cc1 (stereo not drawn) [4d, N-(4-(4-bromophenyl)-5-cyano-3-methyl-1-phenyl-1,4-dihydropyrano[2,3-c]-pyrazol-6-yl)-4-methylbenzenesulfonamide]",IC50,HepG2 cells,> 10 µM
same,IC50,Huh-7 cells,> 10 µM
same,melting point,,101.6 to 102.3 °C
same,remaining activity at 1 µM,RalB,89%
same,remaining activity at 1 µM,RalA,77%
"Cc1ccc(S(=O)(=O)NC2=C(C#N)C(c3cccc(Cl)c3)c3c(C)nn(-c4ccccc4)c3O2)cc1 (stereo not drawn) [4c, N-(4-(3-chlorophenyl)-5-cyano-3-methyl-1-phenyl-1,4-dihydropyrano[2,3-c]-pyrazol-6-yl)-4-methylbenzenesulfonamide]",IC50,HepG2 cells,7.28 ± 0.64 µM
same,IC50,Huh-7 cells,> 10 µM
same,melting point,,68.4 to 69 °C
same,remaining activity at 1 µM,RalB,69%
same,remaining activity at 1 µM,RalA,40%
"COc1cccc(C2C(C#N)=C(NS(=O)(=O)c3ccccc3[N+](=O)[O-])Oc3c2c(C)nn3-c2ccccc2Cl)c1 (stereo not drawn) [4z, N-(1-(2-chlorophenyl)-5-cyano-4-(3-methoxyphenyl)-3-methyl-1,4-dihydropyrano[2,3-c]-pyrazol-6-yl)-2-nitrobenzenesulfonamide]",IC50,HepG2 cells,> 10 µM
same,IC50,Huh-7 cells,> 10 µM
same,remaining activity at 1 µM,RalB,60%
same,remaining activity at 1 µM,RalA,53%
"COc1ccc(C2C(C#N)=C(NS(=O)(=O)c3ccc(C)cc3)Oc3c2c(C)nn3-c2ccccc2)cc1 (stereo not drawn) [4i, N-(5-cyano-4-(4-methoxyphenyl)-3-methyl-1-phenyl-1,4-dihydropyrano[2,3-c]-pyrazol-6-yl)-4-methylbenzenesulfonamide]",IC50,HepG2 cells,> 10 µM
same,IC50,Huh-7 cells,> 10 µM
same,melting point,,145.2 to 146 °C
same,remaining activity at 1 µM,RalB,60%
same,remaining activity at 1 µM,RalA,69%
"Cc1ccc(S(=O)(=O)NC2=C(C#N)C(c3ccccc3)c3c(C)nn(-c4ccccc4Cl)c3O2)cc1 (stereo not drawn) [4ad, N-(1-(2-chlorophenyl)-5-cyano-3-methyl-4-phenyl-1,4-dihydropyrano[2,3-c]-pyrazol-6-yl)-4-methylbenzenesulfonamide]",IC50,HepG2 cells,> 10 µM
same,IC50,Huh-7 cells,> 10 µM
same,melting point,,77.4 to 78 °C
same,remaining activity at 1 µM,RalB,64%
same,remaining activity at 1 µM,RalA,52%
"Cc1ccc(S(=O)(=O)NC2=C(C#N)C(c3ccco3)c3c(C)nn(-c4ccccc4)c3O2)cc1 (stereo not drawn) [4j, N-(5-cyano-4-(furan-2-yl)-3-methyl-1-phenyl-1,4-dihydropyrano[2,3-c]-pyrazol-6-yl)-4-methylbenzenesulfonamide]",IC50,HepG2 cells,9.57 ± 1.05 µM
same,IC50,Huh-7 cells,9.94 ± 1.23 µM
same,melting point,,153.8 to 154.3 °C
same,remaining activity at 1 µM,RalB,70%
same,remaining activity at 1 µM,RalA,57%
"Cc1ccc(S(=O)(=O)NC2=C(C#N)C(c3ccccc3)c3c(C)nn(-c4ccc(F)cc4)c3O2)cc1 (stereo not drawn) [4ag, N-(5-cyano-1-(4-fluorophenyl)-3-methyl-4-phenyl-1,4-dihydropyrano[2,3-c]-pyrazol-6-yl)-4-methylbenzenesulfonamide]",IC50,HepG2 cells,> 10 µM
same,IC50,Huh-7 cells,> 10 µM
same,melting point,,138.6 to 139.3 °C
same,remaining activity at 1 µM,RalB,75%
same,remaining activity at 1 µM,RalA,66%
"COc1ccc(S(=O)(=O)NC2=C(C#N)C(c3cccc(OC)c3)c3c(C)nn(-c4ccccc4Cl)c3O2)cc1 (stereo not drawn) [4y, N-(1-(2-chlorophenyl)-5-cyano-4-(3-methoxyphenyl)-3-methyl-1,4-dihydropyrano[2,3-c]-pyrazol-6-yl)-4-methoxybenzenesulfonamide]",IC50,HepG2 cells,> 10 µM
same,IC50,Huh-7 cells,> 10 µM
same,remaining activity at 1 µM,RalB,73%
same,remaining activity at 1 µM,RalA,54%
"Cc1ccc(S(=O)(=O)NC2=C(C#N)C(c3cccnc3)c3c(C)nn(-c4ccccc4Cl)c3O2)cc1 (stereo not drawn) [4t, N-(1-(2-chlorophenyl)-5-cyano-3-methyl-4-(pyridin-3-yl)-1,4-dihydropyrano[2,3-c]-pyrazol-6-yl)-4-methylbenzenesulfonamide]",IC50,HepG2 cells,8.28 ± 0.89 µM
same,IC50,Huh-7 cells,> 10 µM
same,remaining activity at 1 µM,RalB,65%
same,remaining activity at 1 µM,RalA,46%
"Cc1ccc(S(=O)(=O)NC2=C(C#N)C(c3ccc(Cl)c(Cl)c3)c3c(C)nn(-c4ccccc4)c3O2)cc1 (stereo not drawn) [4g, N-(5-cyano-4-(3,4-dichlorophenyl)-3-methyl-1-phenyl-1,4-dihydropyrano[2,3-c]-pyrazol-6-yl)-4-methylbenzenesulfonamide]",IC50,HepG2 cells,> 10 µM
same,IC50,Huh-7 cells,> 10 µM
same,remaining activity at 1 µM,RalB,58%
same,remaining activity at 1 µM,RalA,66%
